Results as given in patent US10125126B2, “N-cycloalkyl-N-[(heterocyclylphenyl)methylene]-(thio)carboxamide derivatives” (BAYER CROPSCIENCE AG, priority 2012, dated 2018).

Legend:
Septoria tritici = assay: In vivo preventive test on Septoria tritici (wheat); details: 500 ppm of active ingredient; wheat plants; 24 days after contamination
In short: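 Scipion wheat grown at 22° C, sprayed at 1-leaf stage (10 cm); controls received acetone/tween/DMSO/water without active. Inoculated 24 h later with S. tritici spores (500 000/mL), held 72 h at 18° C, 100% RH, then 21 days at 90% RH. % efficacy vs controls scored 24 days post-inoculation.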

Venturia inaequalis = assay: In vivo preventive test on Venturia inaequalis (apples); details: 100 ppm of active ingredient, evaluated 10 days after inoculation
Experimental: In Vivo Preventive Test on Venturia inaequalis (apples) [table] To produce a suitable preparation of active compound, 1 part by weight of active compound is mixed with the stated amounts of solvent and emulsifier, and the concentrate is diluted with water to the desired concentration. To test for preventive activity, young plants are sprayed with the preparation of active compound at the stated rate of application. After the spray coating has dried on, the plants are inoculated with an aqueous conidia suspension of the causal agent of apple scab (Venturia inaequalis) and then remain for 1 day in an incubation cabinet at approximately 20° C. and a relative atmospheric humidity of 100%. The plants are then placed in a greenhouse at approximately 21° C. and a relative atmospheric humidity of approximately 90%.

Alternaria brassicae = assay: In vivo preventive test on Alternaria brassicae (leaf spot on radish); details: 500 ppm of active ingredient; radish plants; 6 days after contamination
Experimental: In Vivo Preventive Test on Alternaria brassicae (Leaf Spot on Radish) […] Radish plants (“Pernod Clair” variety), sown in starter cups on a 50/50 peat soil pozzolana substrate and grown at 17° C., are treated at the cotyledon stage by spraying with the active ingredient prepared as described above. Plants, used as controls, are treated with the mixture of acetone/tween/DMSO/water not containing the active material. After 24 hours, the plants are contaminated by spraying the cotyledons with an aqueous suspension of Alternaria brassicae spores (50 000 spores per mL). The spores are collected from a 15-day-old culture. The contaminated radish plants are incubated at 20° C. and at 100% relative humidity. Grading (% of efficacy) is carried out 6 days after the contamination, in comparison with the control plants.

Puccinia recondita = assay: In vivo preventive test on Puccinia recondita (brown rust on wheat); details: 500 ppm of active ingredient; wheat plants; 12 days after contamination
In short: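 Wheat plants ("Scipion") at 1-leaf stage, grown at 22° C, were sprayed with compound, then inoculated 24 h later with Puccinia recondita spores (100 000 spores per mL). Efficacy (%) graded 12 days after inoculation relative to solvent-treated controls.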

Botrytis cinerea = assay: In vivo preventive test on Botrytis cinerea (grey mould); details: 500 ppm of active ingredient; gherkin plants; 4 to 5 days after contamination
In short: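 Gherkin plants at cotyledon stage Z11 were sprayed with compound, then inoculated 24 h later with Botrytis cinerea spores (50 000 spores per mL in nutrient solution). Plants were kept at 17° C and 90% RH, and percent efficacy versus solvent-treated controls was graded 4 to 5 days after contamination.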

[1] = log P by HPLC on a reversed-phase column (C 18), EEC Directive 79/831 Annex V.A8; format: physicochemical; details: for logP: HPLC on reversed-phase column (C 18), 40° C., 0.1% aqueous formic acid and acetonitrile, linear gradient 10% to 90% acetonitrile
In short: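 40° C; 0.1% aq. formic acid/acetonitrile, linear gradient 10→90% acetonitrile. Calibration: unbranched alkan-2-ones (C3–C16), known log P. log P from retention time, linear interpolation between neighbouring alkanones. lambda-max from UV 200–400 nm at peak maxima.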

Uromyces appendiculatus = assay: In vivo preventive test on Uromyces appendiculatus (bean rust); details: 500 ppm of active ingredient; bean plants; 11 days after contamination
In short: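 Saxa bean plants at 2-leaf stage, grown at 24° C., sprayed preventively with compound; 24 h later inoculated with U. appendiculatus spores (150 000 spores per mL). Percent efficacy graded 11 days after inoculation versus solvent-treated controls.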

Pyrenophora teres = assay: In vivo preventive test on Pyrenophora teres (barley); details: 500 ppm of active ingredient; barley plants; 14 days after contamination
Experimental: In Vivo Preventive Test on Pyrenophora teres (Barley) […] Barley plants (“Plaisant” variety), sown in starter cups on a 50/50 peat soil pozzolana substrate and grown at 22° C., are treated at the 1 leaf stage (10 cm height) by spraying with the active ingredient prepared as described above. Plants, used as controls, are treated with the mixture of acetone/tween/DMSO/water not containing the active material. After 24 hours, the plants are contaminated by spraying the leaves with an aqueous suspension of Pyrenophora teres spores (12 000 spores per mL). The spores are collected from a 12-day-old culture. […] Grading (% of efficacy) is carried out 14 days after the contamination, in comparison with the control plants.

Sphaerotheca fuliginea = assay: In vivo preventive test on Sphaerotheca fuliginea (powdery mildew on cucurbits); details: 500 ppm of active ingredient, gherkin plants, 12 days after contamination; for pest or weed control at 500 ppm: Podosphaera fuliginea, 288 h, read-out: Efficacy
In short: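 Gherkin plants ("Vert petit de Paris") grown at 24 °C were sprayed at cotyledon stage Z11; controls received acetone/tween/DMSO/water without active. Inoculation 24 h later by spraying cotyledons with 100 000 spores/mL. Efficacy (%) graded 12 days post-contamination versus controls.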

Pyricularia oryzae = format: in vivo; details: 500 ppm of active ingredient; rice plants; 6 days after contamination
[2] = test system: Blumeria graminis f.sp. hordei; assay: In vivo preventive test on Blumeria graminis (barley); details: 500 ppm of active ingredient, evaluated 7 days after inoculation
Experimental: In Vivo Preventive Test on Blumeria graminis (Barley) [table] To produce a suitable preparation of active compound, 1 part by weight of active compound or active compound combination is mixed with the stated amounts of solvent and emulsifier, and the concentrate is diluted with water to the desired concentration. To test for preventive activity, young plants are sprayed with the preparation of active compound or active compound combination at the stated rate of application. After the spray coating has been dried, the plants are dusted with spores of Blumeria graminis f.sp. hordei.

Leptosphaeria nodorum = assay: In vivo preventive test on Leptosphaeria nodorum (wheat); details: 500 ppm of active ingredient, evaluated 8 days after inoculation
Experimental: In Vivo Preventive Test on Leptosphaeria nodorum Test (Wheat) [table] To produce a suitable preparation of active compound, 1 part by weight of active compound or active compound combination is mixed with the stated amounts of solvent and emulsifier, and the concentrate is diluted with water to the desired concentration. To test for preventive activity, young plants are sprayed with the preparation of active compound or active compound combination at the stated rate of application. After the spray coating has been dried, the plants are sprayed with a spore suspension of Leptosphaeria nodorum. The plants remain for 48 hours in an incubation cabinet at approximately 20° C. and a relative atmospheric humidity of approximately 100%.

Cn1nc(C(F)F)c(C(=O)N(Cc2ccccc2-c2ccc(Cl)s2)C2CC2)c1F [I.139]
Efficacy (Septoria tritici): 96%
Efficacy (Venturia inaequalis): 100%
Efficacy (Alternaria brassicae): 73%
Efficacy (Puccinia recondita): 94%
Efficacy (Botrytis cinerea): 100%
logP [1]: 4.32
Efficacy (Uromyces appendiculatus): 100%
Efficacy (Pyrenophora teres): 100%

Cc1csc(-c2ccc(C(C)C)c(CN(C(=O)c3c(C(F)F)nn(C)c3F)C3CC3)c2)c1 [I.106]
Efficacy (Septoria tritici): 80%
Efficacy (Sphaerotheca fuliginea): 100%
Efficacy (Pyricularia oryzae): 80%
Efficacy (Alternaria brassicae): 100%
Efficacy (Botrytis cinerea): 80%
logP [1]: 4.93
Efficacy (Pyrenophora teres): 93%

CC(C)c1ccc(-c2coc3ccccc23)cc1CN(C(=O)c1c(C(F)F)nn(C)c1F)C1CC1 [I.132]
Efficacy (Septoria tritici): 100%
Efficacy (Sphaerotheca fuliginea): 100%
Efficacy (Pyricularia oryzae): 80%
Efficacy (Alternaria brassicae): 97%
Efficacy (Puccinia recondita): 83%
Efficacy (Botrytis cinerea): 99%
logP [1]: 4.90
Efficacy (Uromyces appendiculatus): 77%
Efficacy (Pyrenophora teres): 88%

Cc1csc(-c2ccccc2CN(C(=O)c2c(C(F)F)nn(C)c2F)C2CC2)c1 [I.100, N-cyclopropyl-3-(difluoromethyl)-5-fluoro-1-methyl-N-[2-(4-methyl-2-thienyl)benzyl]-1H-pyrazole-4-carboxamide]
Efficacy (Septoria tritici): 100%
pest or weed control at 500 ppm (Sphaerotheca fuliginea): 100%
Efficacy (Puccinia recondita): 100%
Efficacy (Botrytis cinerea): 80%
chromatographic logP [1]: 3.99
Efficacy (Uromyces appendiculatus): 100%
Efficacy [2]: 100%
Efficacy (Leptosphaeria nodorum): 83%
Efficacy (Pyrenophora teres): 95%

Cc1cscc1-c1ccccc1CN(C(=O)c1c(C(F)F)nn(C)c1F)C1CC1 [I.105]
Efficacy (Septoria tritici): 80%
Efficacy (Sphaerotheca fuliginea): 100%
Efficacy (Puccinia recondita): 100%
logP [1]: 3.90
Efficacy (Uromyces appendiculatus): 100%
Efficacy [2]: 100%
Efficacy (Pyrenophora teres): 97%

COc1ccsc1-c1ccc(F)cc1CN(C(=O)c1c(C(F)F)nn(C)c1F)C1CC1 [I.119]
Efficacy (Septoria tritici): 90%
Efficacy (Sphaerotheca fuliginea): 100%
Efficacy (Pyricularia oryzae): 70%
Efficacy (Puccinia recondita): 100%
logP [1]: 3.63
Efficacy (Uromyces appendiculatus): 100%
Efficacy (Pyrenophora teres): 71%

Cn1nc(C(F)F)c(C(=O)N(Cc2cc(Cl)ccc2C2(C)CO2)C2CC2)c1F (centres unmarked) [I.4, N-[5-chloro-2-(2-methyloxiran-2-yl)benzyl]-N-cyclopropyl-3-(difluoromethyl)-5-fluoro-1-methyl-1H-pyrazole-4-carboxamide]
Efficacy (Septoria tritici): 100%
pest or weed control at 500 ppm (Sphaerotheca fuliginea): 100%
Efficacy (Venturia inaequalis): 100%
Efficacy (Puccinia recondita): 98%
chromatographic logP [1]: 3.19
Efficacy (Uromyces appendiculatus): 100%
Efficacy [2]: 94%
Efficacy (Leptosphaeria nodorum): 80%
Efficacy (Pyrenophora teres): 96%

Cn1nc(C(F)F)c(C(=O)N(Cc2ccccc2C2(C)CO2)C2CC2)c1F (centres unmarked) [I.3]
Efficacy (Septoria tritici): 100%
Efficacy (Sphaerotheca fuliginea): 100%
Efficacy (Venturia inaequalis): 96%
Efficacy (Puccinia recondita): 94%
logP [1]: 2.68
Efficacy (Uromyces appendiculatus): 100%
Efficacy [2]: 100%
Efficacy (Leptosphaeria nodorum): 92%
Efficacy (Pyrenophora teres): 88%
